Source: patent US10806798B2, “Compound with effects of thrombolysis, free radical scavenging and thrombus-targeting” (Shanghai Lumosa Therapeutics Co., Ltd., priority 2012, dated 2020)
Marks after values point to notes of the source that are not given here. Side chains are listed from the residue outwards. Ends that are not written are not given here.

Columns and labels:
[1] = system: thrombus from rat arterial blood; assay: In vitro thrombolysis; design: species or system SD rats; details: 2 h at 37° C., n = 6
Method: SD rats (male, 350 to 400 g) were anaesthetized by intraperitoneal injection of a urethane solution at a dosage of 1200 mg/kg. The anaesthetized rats were fixed in a supine position, and the right common carotid artery was dissected, clamped at the proximal end with an arterial clip, and penetrated with a suture at the proximal and distal ends, respectively. The suture at the distal end is clipped tightly by a hemostatic clamp at the fur. Cannulation was performed at the distal end, the artery clamp was removed, and the total arterial blood was discharged into a 50 ml container previously treated with silicone oil. […] rat arterial blood was injected into a vertically fixed glass tube (20 mm in length, with an inner diameter of 4 mm and an outer diameter of 5 mm, sealed with a rubber stopper at the bottom), into which was immediately inserted a thrombus immobilization screw made of stainless steel. […] 40 min after the blood was coagulated, the rubber stopper at the bottom of the glass tube was removed, the stem of the thrombus immobilization screw was nipped by forceps, and the thrombus-wrapped thrombus immobilization screw was carefully taken out from the glass tube. The screw was then suspended and dipped in triple-distilled water to remove excessive blood, and accurately weighed after 1 h. The thrombus was suspended in 8 mL of normal saline, or a solution of compounds Ia-Il in normal saline (at a concentration of 100 nM), or a solution of ARPAK (SEQ. ID NO. 4), GRPAK (SEQ. ID NO. 5), RPAK (SEQ. ID NO. 3) or PAK in normal saline (at a concentration of 100 nM), or a solution of urokinase in normal saline (100 IU/mL), then shaked at 37° C. in a thermostatic shaker (63 r/min), and removed after 2 h and accurately weighed to determine the weight of the thrombus.

euglobulin clot = assay: Euglobulin clot lysis; format: biochemical, Pig; details: after 4 h, n = 3
Method: Pig blood was taken and mixed with 3.8% sodium citrate in a volume ratio of 9:1, immediately centrifuged at 3000 r/min for 10 min, and platelet-poor plasma was separated. 2 mL platelet-poor pig plasma and 36 mL ultrapure water were added into a 50 mL centrifuge tube. In each tube, 0.4 mL acetic acid (1%) was added and thoroughly mixed, and the tube was placed in a 4° C. refrigerator for 10 min and then centrifuged at 3000 r/min for 10 min. The centrifuge tubes were inverted, and then the inner wall of the tubes was dried using a filter paper after the liquid was drained. The euglobuin pellets resulting from centrifugation was freeze-dried for about 40 min and scratched out. About 35 mg euglobuin was taken and dissolved in 7 ml borax buffer (pH 9.28). The euglobuin were mostly dissolved after 1 h, into which 0.7 mL CaCl2 solution (25 mM) was added, and immediately plated on a 10×10 cm glass plate with a thickness of about 1 mm. After clot formation, 10 μL normal saline, or 10 μL of a solution of one of compounds Ia to Il in normal saline (1 mM) or 10 μL of a urokinase solution in normal saline (0.8 mg/mL) was pipetted and spotted onto the clot plate, with an interval between every two drops more than 1.5 cm, and each sample was spotted 3 times.

rats with stroke = assay: Cerebral infarction volume after immediate treatment of stroke (TTC staining); format: in vivo, SD rats; details: n = 10
Method: After the rats were awake for 24 h and assessed for their degree of damage in neural function in Experimental example 6, they were anesthesized with urethane followed by immediate decapitation and removal of the brain. Brain tissues were kept in a −20° C. refrigerator for 2 h, and coronal sections of about 2 mm were successively sliced from the prefrontal end for a total of 6 sections, and then placed into a 2% TTC solution to incubate in darkness at 37° C. for 30 min. The color change in brain sections was observed: normal brain tissues were stained red by TTC, while ischemic brain tissues, i.e., brain tissues with infracts, appeared in a white color. Photographs were taken by using a digital camera and processed with SPSS statistics software, and the volume of infarction in brain tissues and the volume of normal brain tissues in the coronal sections were calculated.

thrombus = assay: In vivo thrombolysis, rat arteriovenous bypass thrombolysis model; design: species or system SD rats; details: after 1 h, n = 10
Method: SD rats (male, 220 to 230 g) were anaesthetized by intraperitoneal injection of a urethane solution at a dosage of 1200 mg/kg. The anaesthetized rats were fixed in a supine position, and the right common carotid artery was dissected, clamped at the proximal end with an arterial clip, and penetrated with a suture at the proximal and distal ends, respectively. The suture at the distal end is clipped tightly by a hemostatic clamp at the fur. Cannulation was performed at the distal end, the arterial clamp was removed, and about 1 ml arterial blood was discharged into a 1 ml eppendorf. 0.1 ml rat arterial blood was injected into a vertically fixed glass tube (15 mm in length, with an inner diameter of 2.5 mm and an outer diameter of 5.0 mm, sealed with a rubber stopper at the bottom), into which was immediately inserted a thrombus immobilization screw made of stainless steel. […] 15 min after the blood was coagulated, the rubber stopper at the bottom of the glass tube was removed, the stem of the thrombus immobilization screw was nipped by forceps, and the thrombus-wrapped thrombus immobilization screw was carefully taken out of the glass tube and then accurately weighed.
A bypass cannula was composed of 3 segments. The middle segment was a polyethylene tubing having a length of 60.0 mm and an inner diameter of 3.5 mm. The segments on both ends were similar polyethylene tubes having a length of 100.0 mm, an inner diameter of 1.0 mm and an outer diameter of 2.0 mm, one end of which was pulled to form a tip, with an outer diameter of 1.0 mm, that could be inserted into the rat carotid artery or vein, and the other end of which was sheathed by a polyethylene tube having a length of 7.0 mm and an outer diameter of 3.5 mm (thickened in order to be inserted into the polyethylene tubing of the middle segment). The inner wall of the 3-segment cannula was entirely silylated (with 1% silicone oil in ethyl ether). The thrombus-wrapped thrombus immobilization screw was placed into the polyethylene tubing of the middle segment, and both ends of the tubing sheathed the thickened ends of the two polyethylene tubes. The cannula was filled with a heparin solution in normal saline (50 IU/kg) through the tip end by using an injector and was ready for use. The trachea of the anaesthetized rat was then dissected and tracheal cannulation was performed. The left external carotid vein of the rat was dissected, and penetrated with a suture at the proximal and distal ends, respectively. An uneven open incision was careful made on the exposed left external carotid vein, and the tip of the bypass cannula prepared as described above was inserted into the proximal end of the open incision in the left external carotid vein, away from the stem of the thrombus immobilization screw in the middle segment of the bypass cannula (which accommodated the accurately weighed thrombus immobilization screw). A precise amount of heparin in saline (50 IU/kg) was injected through the tip at the other end by using an injector. At this moment, without removing the injector from the ethylene tube, the tubing between the injector and the polyethylene tube was clamped with forceps. The blood flow was stopped by clamping the proximal end of the right common carotid artery with an arterial clip, and an uneven open incision was cut carefully across the common carotid artery near the clip. The injector was pulled out of the tip of the polyethylene tube, and the tip of the polyethylene tube was then inserted into the proximal end of the artery open incision. Both ends of the bypass cannula were fixed to the artery or vein with #4 sutures. […]

Substance | Weight reduction in thrombus (Mean ± SD mg) ([1]; 100 nM) | Diameter (Mean ± SD mm) of euglobulin clot lysis (euglobulin clot; 10 μL of 1 mM solution) | Percentage of infarction volume (Mean ± SD %) (rats with stroke) | Weight reduction in thrombus (Mean ± SD mg) (thrombus; 0.1 μmol/kg) | Weight reduction in thrombus (Mean ± SD mg) ([1]; urokinase 100 IU/mL) | Diameter (Mean ± SD mm) of euglobulin clot lysis (euglobulin clot; 10 μL of urokinase 0.8 mg/mL) | Percentage of infarction volume (Mean ± SD %) (rats with stroke; urokinase 20000 IU/kg, immediate treatment) | Weight reduction in thrombus (Mean ± SD mg) (thrombus; urokinase 20000 IU/kg)
1,3-dioxo-2-{4′-oxyacetyl-[N^ω-(Ala-Arg-Pro-Ala-Lys)-Lys-Arg-Gly-Asp-Phe]phenyl}-4,4,5,5-tetramethylimidazoline [Ic] | 27.33 ± 2.07 mg | 3.8 mm | 7.40 ± 1.65% | 15.79 ± 3.07 mg | – | – | – | –
1,3-dioxo-2-{4′-oxyacetyl-[N^ω-(Ala-Arg-Pro-Ala-Lys)-Lys-Arg-Gly-Asp-Ser]phenyl}-4,4,5,5-tetramethylimidazoline [Ia] | 28.50 ± 2.59 mg | 4.0 mm | 7.21 ± 0.82% | 15.39 ± 3.19 mg | – | – | – | –
1,3-dioxo-2-{4′-oxyacetyl-[N^ω-(Ala-Arg-Pro-Ala-Lys)-Lys-Arg-Gly-Asp-Val]phenyl}-4,4,5,5-tetramethylimidazoline [Ib] | 28.17 ± 2.31 mg | 5.2 mm | 7.13 ± 0.83% | 14.35 ± 2.95 mg | – | – | – | –
1,3-dioxo-2-{4′-oxyacetyl-[N^ω-(Arg-Pro-Ala-Lys)-Lys-Arg-Gly-Asp-Phe]phenyl}-4,4,5,5-tetramethylimidazoline [Ii] | 24.83 ± 1.17 mg | 4.0 mm | 7.06 ± 1.08% | 15.73 ± 2.95 mg | – | – | – | –
1,3-dioxo-2-{4′-oxyacetyl-[N^ω-(Arg-Pro-Ala-Lys)-Lys-Arg-Gly-Asp-Ser]phenyl}-4,4,5,5-tetramethylimidazoline [Ig] | 27.83 ± 2.56 mg | 5.2 mm | 6.40 ± 0.28% | 16.35 ± 2.42 mg | – | – | – | –
1,3-dioxo-2-{4′-oxyacetyl-[N^ω-(Arg-Pro-Ala-Lys)-Lys-Arg-Gly-Asp-Val]phenyl}-4,4,5,5-tetramethylimidazoline [Ih] | 29.33 ± 3.01 mg | 4.2 mm | 7.35 ± 1.14% | 15.37 ± 1.82 mg | – | – | – | –
1,3-dioxo-2-{4′-oxyacetyl-[N^ω-(Gly-Arg-Pro-Ala-Lys)-Lys-Arg-Gly-Asp-Phe]phenyl}-4,4,5,5-tetramethylimidazoline [If] | 15.29 ± 3.36 mg | 4.5 mm | 7.47 ± 1.31% | 15.29 ± 3.36 mg | – | – | – | –
1,3-dioxo-2-{4′-oxyacetyl-[N^ω-(Gly-Arg-Pro-Ala-Lys)-Lys-Arg-Gly-Asp-Ser]phenyl}-4,4,5,5-tetramethylimidazoline | 14.17 ± 3.55 mg | 5.2 mm | 8.21 ± 1.91% | 14.17 ± 3.55 mg | – | – | – | –
1,3-dioxo-2-{4′-oxyacetyl-[N^ω-(Pro-Ala-Lys)-Lys-Arg-Gly-Asp-Phe]phenyl}-4,4,5,5-tetramethylimidazoline (K([Lys-Ala-Pro])RGDF; not fully specified (N-terminus); also: 4′-oxyacetylphenyl-1,3-dioxo-4,4,5,5-tetramethylimidazoline (nitronyl nitroxide) conjugate, attachment amine not clear) [Il] | 25.83 ± 2.31 mg | 4.2 mm | 6.56 ± 0.41% | 16.21 ± 2.84 mg | – | – | – | –
1,3-dioxo-2-{4′-oxyacetyl-[N^ω-(Pro-Ala-Lys)-Lys-Arg-Gly-Asp-Ser]phenyl}-4,4,5,5-tetramethylimidazoline (K([Lys-Ala-Pro])RGDS; not fully specified (N-terminus); also: 4′-oxyacetylphenyl-1,3-dioxo-4,4,5,5-tetramethylimidazoline (nitronyl nitroxide) conjugate, attachment amine not clear) [Ij] | 26.16 ± 3.15 mg | 4.0 mm | 6.84 ± 0.82% | 14.89 ± 1.84 mg | – | – | – | –
1,3-dioxo-2-{4′-oxyacetyl-[N^ω-(Pro-Ala-Lys)-Lys-Arg-Gly-Asp-Val]phenyl}-4,4,5,5-tetramethylimidazoline (K([Lys-Ala-Pro])RGDV; not fully specified (N-terminus); also: 4′-oxyacetylphenyl-1,3-dioxo-4,4,5,5-tetramethylimidazoline (nitronyl nitroxide) conjugate, attachment amine not clear) [Ik] | 25.00 ± 1.54 mg | 4.5 mm | 7.86 ± 1.02% | 15.47 ± 2.61 mg | – | – | – | –
urokinase | – | – | – | – | 58.33 ± 4.08^a mg | 10.7 mm | 11.00 ± 2.42 ^b % | 18.02 ± 2.32^a mg
